Earlier results as cited in patent US20050043329A1, “Crystalline forms of valacyclovir hydrochloride” (priority 2002, published 2005).

Tests used:
[1] = after oral administration in healthy adults
[2] = after oral administration

- absorption from the gastrointestinal tract [2]: rapidly absorbed
SMILES: CC(C)[C@H](N)C(=O)OCCOCn1cnc2c(=O)[nH]c(N)nc21 [valacyclovir, 1-valine, 2-[(2-amino-1,6-dihydro-6-oxo-9H-purin-9-yl)methoxy]ethyl ester]
- conversion to acyclovir [1]: converted rapidly and virtually completely
